Legend:
Assay type in all cases: biochemical
Conditions in all cases: 15 nM tritium labelled cAMP, 1 h at room temperature
PDE1A = PDE1A (Homo sapiens, UniProt P54750); experiment: PDE1 inhibition assay (SPA, tritium labelled cAMP), PDE1A
Description: (§1) PDE1A, PDE1B and PDE1C assays were performed as follows: the assays was performed in 60 μL samples containing a fixed amount of the PDE1 enzym1 (sufficient to convert 20-25% of the cyclic nucleotide substrate), a buffer (50 mM HEPES pH 7.6; 10 mM MgCl2; 0.02% Tween20), 0.1 mg/ml BSA, 15 nM tritium labelled cAMP and varying amounts of inhibitors. Reactions were initiated by addition of the cyclic nucleotide substrate, and reactions were allowed to proceed for 1 h at room temperature before being terminated through mixing with 20 μL (0.2 mg) yttrium silicate SPA beads (PerkinElmer). The beads were allowed to settle for 1 h in the dark before the plates were counted in a Wallac 1450 Microbeta counter. The measured signals were converted to activity relative to an uninhibited control (100%) and IC50 values were calculated using XlFit (model 205, IDBS).

PDE1B = PDE1B (Homo sapiens, UniProt Q01064); experiment: PDE1 inhibition assay (SPA, tritium labelled cAMP), PDE1B
Sequence of PDE1B (Q01064 whole entry): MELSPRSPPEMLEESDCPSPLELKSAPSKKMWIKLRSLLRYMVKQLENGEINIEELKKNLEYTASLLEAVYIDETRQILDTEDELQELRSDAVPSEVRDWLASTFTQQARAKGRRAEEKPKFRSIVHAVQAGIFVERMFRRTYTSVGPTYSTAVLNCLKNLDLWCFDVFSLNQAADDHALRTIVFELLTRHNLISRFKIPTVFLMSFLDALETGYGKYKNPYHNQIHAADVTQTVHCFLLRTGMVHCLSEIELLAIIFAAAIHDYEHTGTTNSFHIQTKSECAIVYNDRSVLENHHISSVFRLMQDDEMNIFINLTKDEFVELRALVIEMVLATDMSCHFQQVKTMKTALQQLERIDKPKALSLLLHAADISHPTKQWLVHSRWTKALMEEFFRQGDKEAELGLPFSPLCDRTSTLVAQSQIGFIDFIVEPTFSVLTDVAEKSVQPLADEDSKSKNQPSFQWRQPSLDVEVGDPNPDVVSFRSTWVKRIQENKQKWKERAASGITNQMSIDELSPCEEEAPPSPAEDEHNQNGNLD
Description: as §1

PDE1C = PDE1C (Homo sapiens, UniProt Q14123); experiment: PDE1 inhibition assay (SPA, tritium labelled cAMP), PDE1C
Sequence of PDE1C (Q14123 whole entry): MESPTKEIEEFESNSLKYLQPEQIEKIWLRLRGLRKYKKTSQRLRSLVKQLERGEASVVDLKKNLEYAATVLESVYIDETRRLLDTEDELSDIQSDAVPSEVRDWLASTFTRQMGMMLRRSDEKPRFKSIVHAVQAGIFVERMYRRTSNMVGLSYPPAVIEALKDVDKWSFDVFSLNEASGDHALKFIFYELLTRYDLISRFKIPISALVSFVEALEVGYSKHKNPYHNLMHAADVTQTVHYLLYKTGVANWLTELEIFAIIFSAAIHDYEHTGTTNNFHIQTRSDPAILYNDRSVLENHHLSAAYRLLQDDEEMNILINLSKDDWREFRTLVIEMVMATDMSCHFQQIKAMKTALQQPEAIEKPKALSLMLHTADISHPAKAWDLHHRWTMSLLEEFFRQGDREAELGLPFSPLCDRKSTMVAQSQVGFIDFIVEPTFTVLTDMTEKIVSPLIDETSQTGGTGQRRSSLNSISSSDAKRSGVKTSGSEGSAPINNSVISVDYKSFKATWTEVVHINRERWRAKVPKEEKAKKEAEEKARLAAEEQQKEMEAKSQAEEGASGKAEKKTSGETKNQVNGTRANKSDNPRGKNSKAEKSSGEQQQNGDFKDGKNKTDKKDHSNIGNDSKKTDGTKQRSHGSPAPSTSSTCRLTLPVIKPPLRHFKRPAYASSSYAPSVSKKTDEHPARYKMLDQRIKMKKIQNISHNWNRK
Description: as §1

Sequence of PDE1A (P54750 whole entry): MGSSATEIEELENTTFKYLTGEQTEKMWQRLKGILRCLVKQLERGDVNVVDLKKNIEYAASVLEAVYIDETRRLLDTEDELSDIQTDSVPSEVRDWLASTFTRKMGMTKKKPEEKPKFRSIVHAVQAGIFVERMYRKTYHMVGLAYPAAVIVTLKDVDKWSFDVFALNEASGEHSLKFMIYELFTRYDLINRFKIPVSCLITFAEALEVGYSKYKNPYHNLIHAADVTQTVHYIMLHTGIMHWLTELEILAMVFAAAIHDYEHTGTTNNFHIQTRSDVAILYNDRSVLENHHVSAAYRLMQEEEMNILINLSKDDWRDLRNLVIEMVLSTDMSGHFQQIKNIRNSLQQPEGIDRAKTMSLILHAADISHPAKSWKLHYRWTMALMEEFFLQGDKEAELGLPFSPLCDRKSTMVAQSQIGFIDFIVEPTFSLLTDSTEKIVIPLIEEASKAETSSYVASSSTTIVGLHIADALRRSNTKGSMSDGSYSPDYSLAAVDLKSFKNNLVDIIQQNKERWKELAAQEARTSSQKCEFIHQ

Compound | IC50 (PDE1A) | IC50 (PDE1B) | IC50 (PDE1C)
COc1ccc2c(N(C)C3CCOC3C)ncnc2c1F (single isomer, unassigned) [18 Stereoisomer 1] | 1730 nM | 510 nM | 1100 nM
COc1ccc2c(N(C)C3CCOC3C)ncnc2c1F (single isomer, unassigned) [18 Stereoisomer 3] | 200 nM | 47 nM | 87 nM
COc1ccc2c(NC3CCOC3C)ncnc2c1F (single isomer, unassigned) [3 Stereoisomer 1] | 1900 nM | 650 nM | 1800 nM
COc1ccc2c(N(C)C3CCOC3)ncnc2c1Cl (single isomer, unassigned) [6 stereoisomer 1] | 1800 nM | 330 nM | 140 nM
COc1ccc2c(N(C)C3(C)CCOC3)ncnc2c1F (single isomer, unassigned) [15 Stereoisomer 1] | 688 nM | 110 nM | 320 nM
COc1ccc2c(NC3(C)CCOC3C)ncnc2c1F (single isomer, unassigned) [17 Stereoisomer 4] | 408 nM | 140 nM | 440 nM
COc1ccc2c(NC3CCOC3)ncnc2c1Cl (single isomer, unassigned) [4 Stereoisomer 1] | 790 nM | 310 nM | 200 nM
COc1ccc2c(N(C)C3CCOC3C)ncnc2c1F (single isomer, unassigned) [18 Stereoisomer 2] | 2470 nM | 550 nM | 1400 nM
COc1ccc2c(NC3(C)CCOC3C)ncnc2c1F (single isomer, unassigned) [17 Stereoisomer 1] | 184 nM | 27 nM | 98 nM
COc1ccc2c(NC3CCOC3)ncnc2c1F (single isomer, unassigned) [16 Stereoisomer 1] | 1180 nM | 430 nM | 1200 nM
COc1ccc2c(N3CC[C@@H]4OCCC43)ncnc2c1F (single isomer, unassigned) [8 Stereoisomer 2] | 4030 nM | 2200 nM | 2500 nM
COc1ccc2c(NC3CCOC3C)ncnc2c1F (single isomer, unassigned) [3 Stereoisomer 2] | 420 nM | 87 nM | 260 nM
COc1ccc2c(NC3CCOC3)ncnc2c1F (single isomer, unassigned) [16 Stereoisomer 2] | 315 nM | 81 nM | 230 nM
COc1ccc2c(N(C)C3CCOC3)ncnc2c1F (single isomer, unassigned) [2 Stereoisomer 1] | 1100 nM | 300 nM | 1300 nM
COc1ccc2c(N(C)C3(C)CCOC3C)ncnc2c1Cl (single isomer, unassigned) [13 Stereoisomer 1] | 2550 nM | 410 nM | 200 nM
COc1ccc2c(N(C)C3(C)CCOC3)ncnc2c1F (single isomer, unassigned) [15 Stereoisomer 2] | 333 nM | 47 nM | 81 nM
COc1ccc2c(NC3CCOC3C)ncnc2c1F (single isomer, unassigned) [3 Stereoisomer 3] | 530 nM | 70 nM | 310 nM
COc1ccc2c(NC3CCOC3C)ncnc2c1Cl (single isomer, unassigned) [5 stereoisomer 3] | 1500 nM | 460 nM | 250 nM
COc1ccc2c(NC3(C)CCOC3)ncnc2c1F (single isomer, unassigned) [1 Stereoisomer 2] | 250 nM | 65 nM | 260 nM
COc1ccc2c(N3CC[C@@H]4OCCC43)ncnc2c1Cl (single isomer, unassigned) [9 Stereoisomer 2] | 2260 nM | 1200 nM | 550 nM
COc1ccc2c(N(C)C3CCOC3C)ncnc2c1Cl (single isomer, unassigned) [14 Stereoisomer 1] | 2640 nM | 510 nM | 200 nM
COc1ccc2c(N3CC[C@@H]4OCCC43)ncnc2c1Br (single isomer, unassigned) [10 Stereoisomer 2] |  |  | 210 nM
COc1ccc2c(NC3(C)CCOC3C)ncnc2c1F (single isomer, unassigned) [17 Stereoisomer 3] | 451 nM | 100 nM | 390 nM
COc1ccc2c(N(C)C3CCOC3C)ncnc2c1Cl (single isomer, unassigned) [14 Stereoisomer 3] | 1530 nM | 490 nM | 200 nM
COc1ccc2c(N(C)C3(C)CCOC3C)ncnc2c1F (single isomer, unassigned) [19 Stereoisomer 1] | 229 nM | 32 nM | 86 nM
COc1ccc2c(N(C)C3CCOC3C)ncnc2c1F (single isomer, unassigned) [18 Stereoisomer 4] | 515 nM | 60 nM | 120 nM
COc1ccc2c(NC3(C)CCOC3C)ncnc2c1Cl (single isomer, unassigned) [12 Stereoisomer 1] | 853 nM | 200 nM | 130 nM

These reach a lower IC50 (PDE1C). Values come first.

IC50 (PDE1A) | IC50 (PDE1B) | IC50 (PDE1C) | Compound
156 nM | 40 nM | 23 nM | COc1ccc2c(N3CC[C@@H]4OCCC43)ncnc2c1Cl (single isomer, unassigned) [9 Stereoisomer 1]
147 nM | 49 nM | 11 nM | COc1ccc2c(N3CC[C@@H]4OCCC43)ncnc2c1Br (single isomer, unassigned) [10 Stereoisomer 1]
450 nM | 58 nM | 36 nM | COc1ccc2c(NC3CCOC3C)ncnc2c1Cl (single isomer, unassigned) [5 stereoisomer 4]
72 nM | 21 nM | 60 nM | COc1ccc2c(N3CC[C@@H]4OCCC43)ncnc2c1F (single isomer, unassigned) [8 Stereoisomer 1]
285 nM | 30 nM | 14 nM | COc1ccc2c(N(C)C3CCOC3C)ncnc2c1Cl (single isomer, unassigned) [14 Stereoisomer 4]
152 nM | 31 nM | 15 nM | COc1ccc2c(N(C)C3(C)CCOC3)ncnc2c1Cl (single isomer, unassigned) [11 Stereoisomer 2]
97 nM | 10 nM | 34 nM | COc1ccc2c(N(C)C3(C)CCOC3C)ncnc2c1F (single isomer, unassigned) [19 Stereoisomer 4]
300 nM | 49 nM | 27 nM | COc1ccc2c(NC3CCOC3C)ncnc2c1Cl (single isomer, unassigned) [5 stereoisomer 1]
286 nM | 65 nM | 38 nM | COc1ccc2c(NC3(C)CCOC3C)ncnc2c1Cl (single isomer, unassigned) [12 Stereoisomer 2]
85 nM | 7 nM | 5 nM | COc1ccc2c(N(C)C3(C)CCOC3C)ncnc2c1Cl (single isomer, unassigned) [13 Stereoisomer 3]
490 nM | 75 nM | 48 nM | COc1ccc2c(NC3(C)CCOC3)ncnc2c1Cl (single isomer, unassigned) [7 stereoisomer 2]
145 nM | 21 nM | 14 nM | COc1ccc2c(NC3(C)CCOC3C)ncnc2c1Cl (single isomer, unassigned) [12 Stereoisomer 3]
76 nM | 7 nM | 4 nM | COc1ccc2c(NC3(C)CCOC3C)ncnc2c1Cl (single isomer, unassigned) [12 Stereoisomer 4]
73 nM | 5 nM | 22 nM | COc1ccc2c(NC3(C)CCOC3C)ncnc2c1F (single isomer, unassigned) [17 Stereoisomer 2]
100 nM | 18 nM | 76 nM | COc1ccc2c(N(C)C3CCOC3)ncnc2c1F (single isomer, unassigned) [2 Stereoisomer 2]
190 nM | 45 nM | 33 nM | COc1ccc2c(NC3CCOC3)ncnc2c1Cl (single isomer, unassigned) [4 Stereoisomer 2]
170 nM | 18 nM | 10 nM | COc1ccc2c(N(C)C3CCOC3C)ncnc2c1Cl (single isomer, unassigned) [14 Stereoisomer 2]
200 nM | 23 nM | 11 nM | COc1ccc2c(NC3(C)CCOC3)ncnc2c1Cl (single isomer, unassigned) [7 stereoisomer 1]
150 nM | 15 nM | 11 nM | COc1ccc2c(N(C)C3CCOC3)ncnc2c1Cl (single isomer, unassigned) [6 stereoisomer 2]
207 nM | 34 nM | 17 nM | COc1ccc2c(N(C)C3(C)CCOC3C)ncnc2c1Cl (single isomer, unassigned) [13 Stereoisomer 2]
50 nM | 9.9 nM | 28 nM | COc1ccc2c(NC3(C)CCOC3)ncnc2c1F (single isomer, unassigned) [1 Stereoisomer 1]
292 nM | 65 nM | 33 nM | COc1ccc2c(N(C)C3(C)CCOC3)ncnc2c1Cl (single isomer, unassigned) [11 Stereoisomer 1]

Source: patent publication US10526319B2, “Halogenated quinazolin-THF-amines as PDE1 inhibitors” (H. Lundbeck A/S, priority 2014, dated 2020)
